Experiments:
Test in all cases: relative viability (nuclei count vs DMSO), 5 days (fraction); higher = more cells survive
[1] = test system: LCLC-103H
Method in brief: (§1)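 Relative viability was taken as the ratio of nuclei in treated wells to nuclei in vehicle wells. Lung cancer cell lines in 1536-well plates received compounds by pin tool one day after seeding, either one drug alone or a fixed anchor-drug dose plus five library-drug doses (not always all listed) in √10 steps. Nuclei were counted on 4× images after 5 days of treatment, and values are medians of duplicate plates.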

[2] = test system: LXF-289
Method in brief: as §1

[3] = test system: NCI-H1355
Method in brief: as §1

[4] = test system: NCI-H1651
Method in brief: as §1

[5] = test system: NCI-H1755
Method in brief: as §1

[6] = test system: NCI-H1915
Method in brief: as §1

[7] = test system: NCI-H2170
Method in brief: as §1

[8] = test system: NCI-H2347
Method in brief: as §1

[9] = test system: NCI-H3122
Method in brief: as §1

[10] = test system: NCI-H322M
Method in brief: as §1

[11] = test system: NCI-H441
Method in brief: as §1

[12] = test system: NCI-H460
Method in brief: as §1

[13] = test system: NCI-H520
Method in brief: as §1

[14] = test system: NCI-H596
Method in brief: as §1

[15] = test system: NCI-H650
Method in brief: as §1

[16] = test system: NCI-H661
Method in brief: as §1

[17] = test system: NCI-H727
Method in brief: as §1

[18] = test system: PC-14
Method in brief: as §1

[19] = test system: RERF-LC-KJ
Method in brief: as §1

[20] = test system: SK-MES-1
Method in brief: as §1

[21] = test system: SW 900
Method in brief: as §1

Structure (SMILES): NC(=O)Nc1cc(-c2cccc(F)c2)sc1C(=O)N[C@H]1CCCNC1 [AZD7762] + Cc1cc(Nc2cc(N3CCN(C)CC3)nc(Sc3ccc(NC(=O)C4CC4)cc3)n2)n[nH]1 [Tozasertib] (partner 0.1 µM)
- relative viability ([1]; first compound 0.01 µM): 0.522
- relative viability ([1]; first compound 0.03162 µM): 0.442
- relative viability ([1]; first compound 0.1 µM): 0.524
- relative viability ([1]; first compound 0.3162 µM): 0.516
- relative viability ([1]; first compound 1 µM): 0.323
- relative viability ([2]; first compound 0.01 µM): 0.215
- relative viability ([2]; first compound 0.03162 µM): 0.203
- relative viability ([2]; first compound 0.1 µM): 0.196
- relative viability ([2]; first compound 0.3162 µM): 0.174
- relative viability ([2]; first compound 1 µM): 0.188
- relative viability ([3]; first compound 0.01 µM): 0.621
- relative viability ([3]; first compound 0.03162 µM): 0.693
- relative viability ([3]; first compound 0.1 µM): 0.566
- relative viability ([3]; first compound 0.3162 µM): 0.666
- relative viability ([3]; first compound 1 µM): 0.532
- relative viability ([4]; first compound 0.01 µM): 0.788
- relative viability ([4]; first compound 0.03162 µM): 0.769
- relative viability ([4]; first compound 0.1 µM): 0.74
- relative viability ([4]; first compound 0.3162 µM): 0.395
- relative viability ([4]; first compound 1 µM): 0.191
- relative viability ([5]; first compound 0.01 µM): 0.767
- relative viability ([5]; first compound 0.03162 µM): 0.572
- relative viability ([5]; first compound 0.1 µM): 0.687
- relative viability ([5]; first compound 0.3162 µM): 0.539
- relative viability ([5]; first compound 1 µM): 0.421
- relative viability ([6]; first compound 0.01 µM): 0.471
- relative viability ([6]; first compound 0.03162 µM): 0.497
- relative viability ([6]; first compound 0.1 µM): 0.483
- relative viability ([6]; first compound 0.3162 µM): 0.415
- relative viability ([6]; first compound 1 µM): 0.368
- relative viability ([7]; first compound 0.01 µM): 0.781
- relative viability ([7]; first compound 0.03162 µM): 0.726
- relative viability ([7]; first compound 0.1 µM): 0.697
- relative viability ([7]; first compound 0.3162 µM): 0.788
- relative viability ([7]; first compound 1 µM): 0.726
- relative viability ([8]; first compound 0.01 µM): 0.62
- relative viability ([8]; first compound 0.03162 µM): 0.551
- relative viability ([8]; first compound 0.1 µM): 0.585
- relative viability ([8]; first compound 0.3162 µM): 0.567
- relative viability ([8]; first compound 1 µM): 0.521
- relative viability ([9]; first compound 0.01 µM): 0.475
- relative viability ([9]; first compound 0.03162 µM): 0.412
- relative viability ([9]; first compound 0.1 µM): 0.402
- relative viability ([9]; first compound 0.3162 µM): 0.278
- relative viability ([9]; first compound 1 µM): 0.156
- relative viability ([10]; first compound 0.01 µM): 0.47
- relative viability ([10]; first compound 0.03162 µM): 0.515
- relative viability ([10]; first compound 0.1 µM): 0.514
- relative viability ([10]; first compound 0.3162 µM): 0.307
- relative viability ([10]; first compound 1 µM): 0.305
- relative viability ([11]; first compound 0.01 µM): 0.801
- relative viability ([11]; first compound 0.03162 µM): 0.907
- relative viability ([11]; first compound 0.1 µM): 0.908
- relative viability ([11]; first compound 0.3162 µM): 0.925
- relative viability ([11]; first compound 1 µM): 0.587
- relative viability ([12]; first compound 0.01 µM): 0.506
- relative viability ([12]; first compound 0.03162 µM): 0.394
- relative viability ([12]; first compound 0.1 µM): 0.444
- relative viability ([12]; first compound 0.3162 µM): 0.357
- relative viability ([12]; first compound 1 µM): 0.031
- relative viability ([13]; first compound 0.01 µM): 0.493
- relative viability ([13]; first compound 0.03162 µM): 0.36
- relative viability ([13]; first compound 0.1 µM): 0.425
- relative viability ([13]; first compound 0.3162 µM): 0.39
- relative viability ([13]; first compound 1 µM): 0.275
- relative viability ([14]; first compound 0.01 µM): 0.978
- relative viability ([14]; first compound 0.03162 µM): 0.83
- relative viability ([14]; first compound 0.1 µM): 0.847
- relative viability ([14]; first compound 0.3162 µM): 0.946
- relative viability ([14]; first compound 1 µM): 0.793
- relative viability ([15]; first compound 0.01 µM): 0.71
- relative viability ([15]; first compound 0.03162 µM): 0.643
- relative viability ([15]; first compound 0.1 µM): 0.709
- relative viability ([15]; first compound 0.3162 µM): 0.704
- relative viability ([15]; first compound 1 µM): 0.526
- relative viability ([16]; first compound 0.01 µM): 0.357
- relative viability ([16]; first compound 0.03162 µM): 0.368
- relative viability ([16]; first compound 0.1 µM): 0.372
- relative viability ([16]; first compound 0.3162 µM): 0.432
- relative viability ([16]; first compound 1 µM): 0.396
- relative viability ([17]; first compound 0.01 µM): 0.662
- relative viability ([17]; first compound 0.03162 µM): 0.619
- relative viability ([17]; first compound 0.1 µM): 0.525
- relative viability ([17]; first compound 0.3162 µM): 0.596
- relative viability ([17]; first compound 1 µM): 0.35
- relative viability ([18]; first compound 0.01 µM): 0.69
- relative viability ([18]; first compound 0.03162 µM): 0.544
- relative viability ([18]; first compound 0.1 µM): 0.555
- relative viability ([18]; first compound 0.3162 µM): 0.511
- relative viability ([18]; first compound 1 µM): 0.269
- relative viability ([19]; first compound 0.01 µM): 0.637
- relative viability ([19]; first compound 0.03162 µM): 0.509
- relative viability ([19]; first compound 0.1 µM): 0.422
- relative viability ([19]; first compound 0.3162 µM): 0.453
- relative viability ([19]; first compound 1 µM): 0.249
- relative viability ([20]; first compound 0.01 µM): 0.936
- relative viability ([20]; first compound 0.03162 µM): 0.865
- relative viability ([20]; first compound 0.1 µM): 0.798
- relative viability ([20]; first compound 0.3162 µM): 0.262
- relative viability ([20]; first compound 1 µM): 0.129
- relative viability ([21]; first compound 0.01 µM): 0.713
- relative viability ([21]; first compound 0.03162 µM): 0.536
- relative viability ([21]; first compound 0.1 µM): 0.743
- relative viability ([21]; first compound 0.3162 µM): 0.663
- relative viability ([21]; first compound 1 µM): 0.403
